The results in this text go back to patent publication US12409138B2, “Nanoparticles and nanogel drug compositions for treatment of age-related macular degeneration” (University of South Florida, priority 2019, dated 2025).

Series [1] has as its system VEGF-A secretion in ARPE-19 cells. Description: VEGF inhibition using ELISA. The format is cell-based, human. As to the method: VEGF inhibition using ELISA. Human retinal pigmented epithelium ARPE-19 cells were seeded in 24 well plate at density of 5×10^4 cells/mL and allowed to grow for 24 h in DMEM F12 medium supplemented with 10% FBS and were incubated at 37° C., 5% CO2 atmosphere till wells became confluent. After 24 h, the culture media was replaced by incomplete media which is DMEM F12 without FBS and treatment with formulation was given. […] Quantification of the VEGF secretion in the culture media was done by ELISA method using Human VEGF-A Platinum ELISA Kit following manufacturer's instructions. The protein content in the cells were estimated using Pierce BCA protein assay kit after collecting cell lysate and the by normalizing VEGF secretion to total protein. Samples were read using ELISA plate reader (Spectra MAX 190, Molecular Devices, California, USA) at 450 nm absorbance and 550 nm and difference was recorded, followed by calculating inhibition of VEGF secretion using standard curve.

The test system of series [2] is ARPE-19 cells. As to the kind of experiment: Wound scratch assay (cell migration, with or without VEGF165). The format is cell-based, human. The conditions noted are these: 1 μM, 48 h. As to the method: Wound scratch assay. Wound healing assay was performed as per the earlier reports to analyse the inhibitory effect of SM and its formulation on VEGF165 (rhVEGF; R&D Systems) induced angiogenesis. ARPE-19 cells were seeded and allowed to grow to attain 80% confluency in 24-well plates. Carefully, wounds were made by pipette tip to take out monolayer of cells as a strip. The wounds were created typically with around 300 μm of the average size and […] variation in wound width was considered for the study. To ensure removal of partially adhered cells on the plates due to creation of the wound, they were washed with sterile PBS twice. The cell wells were then treated with at 1 μM and 10 μM concentrations of SM-NP gel formulations in DMEM F12 media without FBS. Cell migration was observed by using ZEISS inverted phase contrast microscope, (Axicom 506 mono) with Axicom MRCS-ZEN2pro software and quantified by calculating the area covered by the cells because of cell migration from the wound edges towards the center area of the wound using ImageJ software. To check the effect of presence of VEGF on the cell migration, two wells were also kept at above two concentrations and treated with VEGF simultaneously. […] The width of the wound was measured using images captured by microscope. […]

In series [3] the test system is ARPE-19 cells. As to the kind of experiment: Cytotoxicity study (MTT assay). As to conditions: 20 μM. The format is cell-based, human. As for the experimental part: Cell culture. ARPE-19, a human retinal pigment epithelial cell line ([…]) cells were grown and maintained in DMEM F12 medium supplemented with 10% v/v FBS and 1% 10,000 U/ml penicillin-streptomycin antibiotics. The cell cultures were allowed to incubate at 37° C. temperature, in a humidified atmosphere with 5% CO2. Cytotoxicity study. The MTT assay was carried out to determine cytotoxicity of SM-NPs as well as in SM-NPs gel in comparison with pure drug solution, in ARPE-19, human retinal pigment epithelial cells. The cells were seeded in 200 μl of DMEM F12 supplemented with 10% FBS in a 96 well plate (Corning, N.Y.) at a seeding density of 5000 cells/well and incubated for 24 h at 37° C., 5% CO2 atmosphere to allow attachment and growth of the cells. SM drug solution and formulations with various concentrations of SM were prepared by first dissolving SM in DMSO and then diluting them with DMEM F12 medium without FBS. The cells were treated with formulations after 24 h of seeding and incubated for […]. […] Intensity of color produced after dissolution of formazan crystals was quantified by measuring optical density at 595 nm wavelength by microtiter plate reader (Spectra MAX 190, Molecular Devices, California, USA). […] Cell viability were calculated graphically from concentration vs viability curves, considering the optical density of control well as 100% viable.

The nature of series [4]: In vitro drug release study by dialysis. The format is physicochemical. As to the method:
In vitro drug release study. The in vitro drug release study for SM from nanoparticles and nanoparticles incorporated thermo-reversible gel were compared with plain drug solution and was studied at 37°±0.5° C. In short, drug solution in DMSO, SM-NPs and SM-NP Gel having equivalent quantity of SM (1 mg/ml) were placed in dialysis tubes (MWCO 10 KDa) and sealed tightly by using dialysis closures. Then, the dialysis tubes were immersed in 20 ml of PBS (pH 7.4) as a release medium comprising of 0.1% Tween 80 (v/v). Release medium was allowed to stir at 150 rpm and the 0.5 mL of samples were withdrawn at 0.25, 0.5, 1, 2, 4, 6, 12, 24, 48, 72, 96, 120, 144 and 168 h. The volumes were made up with fresh release medium after each sampling. The concentration of SM in a sample was determined by UV spectroscopy at 432 nm after dilution with methanol in ratio of 1:10. For all the formulations, in vitro release tests were carried out in triplicate and results were described as cumulative quantity of drug released at each point of time.

Consider `CCN(CC)CCNC(=O)c1c(C)[nH]c(/C=C2\C(=O)Nc3ccc(F)cc32)c1C` [SM solution, Sunitinib malate], for which the “VEGF secretion” value in series [1] (12 hr, compared to the NPs treatment) is recorded as “noticeably reduced”. Further, in series [1] (48 h, 10 μM SM equivalent, control = 100%), the VEGF expression levels came to 90%. For the same molecule, in series [1] (Homo sapiens, ARPE-19, 12 h, 10 μM SM equivalent, control = 100%, read-out: Inhibition of VEGF levels), the activity at 10 µM stood at 56 ± 3%. The Wound recovery in the series with ARPE-19 cells [2] is 80±1.8%. Besides, the results for the Viability lost in the series on ARPE-19 cells [3] (24 h) and in the series on ARPE-19 cells [3] (48 h) were 25% and 30%, respectively. Besides, the Release kinetics model entry in series [4] is listed as “first order drug release”. The “Cumulative drug release at 1 hr” value in series [4] (PBS pH 7.4, 0.1% Tween 80, 37° C.) is listed as 80%±2.5%.
